From publication PMC5168863, “Synthesis and functionalization of protease-activated nanoparticles with tissue plasminogen activator peptides as targeting moiety and diagnostic tool for pancreatic cancer” (Journal of Nanobiotechnology, 2016)
Residues, ends and D or L forms follow the SMILES beside them. *: point of attachment. 5FAM = O=C1OC2(c3ccc(O)cc3Oc3cc(O)ccc32)c2ccc(C(=O)*)cc21

How the values were obtained:
Gal-4 = target: T1, Gal-4 (Homo sapiens, UniProt P56470); assay: Microscale thermophoresis (MST) binding of t-PA peptides to galectin-4; conditions: for Kd: MST, human galectin; for Fold diff.: versus rh t-PA protein
T1 sequence (P56470 1-323): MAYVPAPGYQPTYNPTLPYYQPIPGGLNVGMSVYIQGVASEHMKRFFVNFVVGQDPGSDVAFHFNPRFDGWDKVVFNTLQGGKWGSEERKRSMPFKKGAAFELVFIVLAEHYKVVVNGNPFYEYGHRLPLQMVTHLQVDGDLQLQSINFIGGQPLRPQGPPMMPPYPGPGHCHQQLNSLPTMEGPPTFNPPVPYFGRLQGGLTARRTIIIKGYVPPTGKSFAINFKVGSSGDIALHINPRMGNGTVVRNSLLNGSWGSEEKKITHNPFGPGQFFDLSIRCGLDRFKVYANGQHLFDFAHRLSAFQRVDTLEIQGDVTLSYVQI
Procedure: (§1) To investigate the binding efficiency of the short t-PA-ligands [10 to 29-AA-long peptides fluorescein or rhodamine-labelled] to galectin-1, we applied the microscale thermophoresis (MST) technology which allows quantitative analysis of protein interactions in solutions. By using MST, individual affinity constants between the different t-PA peptides and galectins (Gal-1, -3, -4) previously characterized to be over-expressed in PDAC were determined and compared to the recombinant human t-PA protein (rh t-PA) as presented in Table 2.
(§2) In order to investigate the binding properties of the modified t-PA-peptides [10-29 AA-long fluorescence-labeled peptides] as ligands to galectins, the microscale thermophoresis (MST) (Monolith NT.115 MST instrument, NanoTemper Technologies GmbH, Munich Germany) technology was employed. MST allows a quantitative analysis of protein interactions in solution and is based on the directed motion of molecules in temperature gradients generated locally by an infrared laser, whereas the molecular mobility in the temperature gradient is analyzed via fluorescence. MST is highly sensitive to all types of binding-induced changes of molecular properties like protein size, charge, hydration shell or conformation. The binding modes such as dimerization, cooperativity, and competition are quantifiable and adaptable to diverse requirements of different biomolecules. Therefore, MST turned out as an ideal method for the interaction studies of t-PA and t-PA-derived peptides with galectins.

Gal-1 = Gal-1 (Homo sapiens, UniProt P09382); assay: Microscale thermophoresis (MST) binding of t-PA peptides to galectin-1; conditions: for Kd: MST, human galectin; for Fold diff.: versus rh t-PA protein
Chain of Gal-1 (P09382 whole entry): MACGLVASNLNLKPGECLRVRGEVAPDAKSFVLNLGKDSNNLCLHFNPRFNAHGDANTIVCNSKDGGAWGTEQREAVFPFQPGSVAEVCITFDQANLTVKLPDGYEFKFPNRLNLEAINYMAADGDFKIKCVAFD
Procedure: as §1, §2

Gal-3 = Gal-3 (Homo sapiens, UniProt P17931); assay: Microscale thermophoresis (MST) binding of t-PA peptides to galectin-3; conditions: for Kd: MST, human galectin; for Fold diff.: versus rh t-PA protein
Chain of Gal-3 (P17931 whole entry): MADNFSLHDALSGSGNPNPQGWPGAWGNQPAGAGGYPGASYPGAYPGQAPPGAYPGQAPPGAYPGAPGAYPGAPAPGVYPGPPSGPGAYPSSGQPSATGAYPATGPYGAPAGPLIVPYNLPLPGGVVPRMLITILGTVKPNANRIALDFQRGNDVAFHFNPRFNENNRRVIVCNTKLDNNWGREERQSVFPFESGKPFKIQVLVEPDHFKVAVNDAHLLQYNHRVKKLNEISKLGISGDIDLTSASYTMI
Procedure: as §1, §2

Su.86.86 = assay: Flow cytometry, binding of peptide/NPs to Su.86.86 cells; assay type: cell-based, human
Procedure: (§3) With the first flow cytometry experiments we analyzed the nanoparticle-core (Core CAN-maghemite (Ce-Fe2O3) and the t-PA-peptide1-lactose (t-PApep1lac) linked to the core. This was to determine whether the fluorescein-labelled t-PA-peptides, covalently linked to NPs, bind to Panc-1 and Su86.86 cells and if the cells are able to internalize the NPs. In a parallel set of experiments the binding of the t-PA-peptide alone (without linkage to NPs) to the pancreatic cancer cells was assessed. For the experimental set-up a concentration of t-PA peptide of 1.25 µM was applied and the cells were exposed to the NPs with and without peptides for different incubation periods of 2, 6, 12 and 24 h.
(§4) Flow cytometry (fluorescent-activated cell sorting/FACS) analysis was used to determine the binding of fluorescein-labeled t-PA-pep1Lac and t-PApep1-vectorized nanoparticles (CAN-Mag@PNPs-tPApep1Lac and CAN-Mag@PNPs-PEG-REGAcp-PEG/tPA-pep1Lac) on the surfaces of Panc-1 and SU.86.86 cells. Additional FACS analyses were performed to monitor concentration and time-dependent binding efficiency and changes caused by addition of competitors (galactose, lactose) or in the presence of active MMP-9, which cleaves the REGAcp sequence. Deshielding of CAN-Mag@PNPs-PEG-REGAcp-PEG/tPA-pep1Lac was carried out by pre-activated MMP-9 (20 µM proMMP-9 and 200 nM of catalytic domain cdMMP-3 in 100 mM Tris, 100 mM NaCl, 10 mM CaCl2, pH 7.4 for 2 h at 37 °C). The active MMP-9 (50 µl, 10 µM) was incubated in the presence of 450 µl NPs and subsequently added to cells. Nanoparticle-exposed cell monolayers (of 2 × 10^5 cells/2 ml medium in 6 well plates), with or without treatment, were harvested 2, 12, 24 h post-exposure using 1 mM EDTA–phosphate-buffered saline (PBS) detachment buffer, (Miltenyi GmbH, Bergisch Gladbach, Germany), washed 3 times in PBS, incubated for 45 min on ice and subsequently subjected to analysis in a BD™ LSR II flow cytometer and Software Program: BD FACSDiva 7.0 (Becton–Dickinson,)

Panc-1 = assay: Flow cytometry, binding of peptide/NPs to Panc-1 cells; assay type: cell-based, human
Procedure: as §3, §4

Kd (Gal-4; N-Fluo. labelled ligand) [µM]	Fold diff. (Gal-4; N-Fluo. labelled ligand)	Kd (Gal-1; N-Fluo. labelled ligand) [µM]	Fold diff. (Gal-1; N-Fluo. labelled ligand)	Kd (Gal-3; N-Fluo. labelled ligand) [µM]	Fold diff. (Gal-3; N-Fluo. labelled ligand)	Molecule	Percentage of cells labeled with nanoparticles (Su.86.86; Su.86.86, 2 h incubation) [%]	Percentage of cells labeled with nanoparticles (Su.86.86; Su.86.86, 12 h incubation) [%]	Percentage of cells labeled with nanoparticles (Su.86.86; Su.86.86, 24 h incubation) [%]	Percentage of cells labeled with nanoparticles (Panc-1; Panc-1, 2 h incubation) [%]	Percentage of cells labeled with nanoparticles (Panc-1; Panc-1, 12 h incubation) [%]	Percentage of cells labeled with nanoparticles (Panc-1; Panc-1, 24 h incubation) [%]	Kd (Gal-4; C-Fluo. labelled ligand) [µM]	Fold diff. (Gal-4; C-Fluo. labelled ligand)	Kd (Gal-1; C-Fluo. labelled ligand) [µM]	Fold diff. (Gal-1; C-Fluo. labelled ligand)	Kd (Gal-3; C-Fluo. labelled ligand) [µM]	Fold diff. (Gal-3; C-Fluo. labelled ligand)
34	1.5	141	−28.7	272	−35.4	CC(C)C[C@H](NC(=O)[C@H](C)NC(=O)[C@H](CO)NC(=O)[C@H](CO)NC(=O)[C@H](CC(N)=O)NC(=O)[C@H](Cc1c[nH]c2ccccc12)NC(=O)[C@H](CC(N)=O)NC(=O)[C@@H](NC(=O)[C@H](CS)NC(=O)[C@H](CCC(=O)O)NC(=O)[C@H](C)NC(=O)CNC(=O)[C@H](CO)NC(=O)[C@H](CCC(=O)O)NC(=O)[C@H](C)NC(=O)[C@@H](NC(=O)[C@H](CO)NC(=O)[C@H](Cc1c[nH]c2ccccc12)NC(=O)[C@@H](NC(=O)CNC(=O)c1ccc2c(c1)C(=O)OC21c2ccc(O)cc2Oc2cc(O)ccc21)[C@@H](C)O)[C@@H](C)O)[C@@H](C)O)C(=O)N[C@@H](C)C(=O)N[C@@H](CCC(N)=O)C(=O)N[C@@H](CCCCN)C(=O)N1CCC[C@H]1C(=O)N[C@@H](Cc1ccc(O)cc1)C(=O)N[C@@H](CO)C(=O)NCC(=O)N[C@@H](CCCNC(=N)N)C(=O)O [t-PA-pep-1] (5FAM-GTWSTAESGAECTNWNSSALAQKPYSGR-OH)	–	–	–	–	–	–	–	–	–	–	–	–
51.2	1	4.92	1	7.68	1	rh t-PA protein: recombinant human t-PA protein [reference compound]	–	–	–	–	–	–	–	–	–	–	–	–

Molecule	Kd (Gal-4; N-Fluo. labelled ligand) [µM]	Fold diff. (Gal-4; N-Fluo. labelled ligand)	Kd (Gal-1; N-Fluo. labelled ligand) [µM]	Fold diff. (Gal-1; N-Fluo. labelled ligand)	Kd (Gal-3; N-Fluo. labelled ligand) [µM]	Fold diff. (Gal-3; N-Fluo. labelled ligand)	Percentage of cells labeled with nanoparticles (Su.86.86; Su.86.86, 2 h incubation) [%]	Percentage of cells labeled with nanoparticles (Su.86.86; Su.86.86, 12 h incubation) [%]	Percentage of cells labeled with nanoparticles (Su.86.86; Su.86.86, 24 h incubation) [%]	Percentage of cells labeled with nanoparticles (Panc-1; Panc-1, 2 h incubation) [%]	Percentage of cells labeled with nanoparticles (Panc-1; Panc-1, 12 h incubation) [%]	Percentage of cells labeled with nanoparticles (Panc-1; Panc-1, 24 h incubation) [%]	Kd (Gal-4; C-Fluo. labelled ligand) [µM]	Fold diff. (Gal-4; C-Fluo. labelled ligand)	Kd (Gal-1; C-Fluo. labelled ligand) [µM]	Fold diff. (Gal-1; C-Fluo. labelled ligand)	Kd (Gal-3; C-Fluo. labelled ligand) [µM]	Fold diff. (Gal-3; C-Fluo. labelled ligand)
CC(C)C[C@H](NC(=O)[C@H](C)NC(=O)[C@H](CO)NC(=O)[C@H](CO)NC(=O)[C@H](CO[C@@H]1O[C@H](CO)[C@@H](O[C@@H]2O[C@H](CO)[C@H](O)[C@H](O)[C@H]2O)[C@H](O)[C@H]1O)NC(=O)[C@H](Cc1c[nH]c2ccccc12)NC(=O)[C@H](CC(N)=O)NC(=O)[C@@H](NC(=O)[C@H](CS)NC(=O)[C@H](CCC(=O)O)NC(=O)[C@H](C)NC(=O)CNC(=O)[C@H](CO)NC(=O)[C@H](CCC(=O)O)NC(=O)[C@H](C)NC(=O)[C@@H](NC(=O)[C@H](CO)NC(=O)[C@H](Cc1c[nH]c2ccccc12)NC(=O)[C@@H](NC(=O)CN)[C@@H](C)O)[C@@H](C)O)[C@@H](C)O)C(=O)N[C@@H](C)C(=O)N[C@@H](CCC(N)=O)C(=O)N[C@@H](CCCCN)C(=O)N1CCC[C@H]1C(=O)N[C@@H](Cc1ccc(O)cc1)C(=O)N[C@@H](CO)C(=O)NCC(=O)N[C@@H](CCCNC(=N)N)C(=O)N[C@@H](CCCCNC(=O)c1ccc2c(c1)C(=O)OC21c2ccc(O)cc2Oc2cc(O)ccc21)C(=O)O [t-PA-pep-1lac]	–	–	0.286	17	–	–	25.7	45.8	36.6	2.6	87.6	86.3	12.7	4.03	0.2	25	0.73	10.4
